According to patent US20230027864A1, “COMPOSITIONS AND METHODS FOR DELIVERY OF AGENTS TO IMMUNE CELLS” (ModernaTX, Inc., priority 2018, published 2023):

Assays:
T cells [1] = experiment: Additional LNPs: T cell transfection in vitro, mOX40L mRNA, labeled LNPs; format: cell-based, human; conditions: for immune cell delivery potentiating ability in T cells, other ionizable lipids: third series, against Compound I-18 formulations, FIG. 47; for immune cell delivery potentiating ability in T cells, sterol panel: structural component, FIG. 44; for immune cell delivery potentiating ability in T cells, amino lipid panel: ionizable lipid component, FIG. 43; for immune cell delivery potentiating ability in T cells, helper lipid panel: phospholipid component, FIG. 45
Description: In this Example, additional LNPs comprising various lipid components and at different ratios were made and tested for their ability to transfect T cells in vitro. Transfection was performed as in Example 5 using LNPs encapsulating an mRNA encoding mouse OX40L. LNPs were labeled and the results were determined for the mean % cells with LNPs associated, the mean % cells expressing mOX40L and the % of LNP-associated cells expressing mOX40L, as described hereinbefore.

T cells [2] = experiment: LNP association and GFP mRNA expression in T cells of human PBMCs; format: cell-based; conditions: for immune cell delivery potentiating ability in T cells, amino lipid panel: ionizable lipid component of the LNP, FIG. 30
Description: In a second series of experiments, additional compounds, were tested in the LNPs for their ability to enhance delivery to T cells. For these experiments, the association of the LNP with cells and the expression of mRNA-encoding protein within the transfected cells was assessed at the cell-by-cell level. Peripheral blood mononuclear cells (PBMCs) from human donors were used. PBMCs were predominately T cells (40-60%), B cells (3-15%), and monocytes (15-35%), but also contained small numbers of other cell types. LNPs were incubated with serum or PBS for 30 minutes and then added to the PBMCs. The LNP concentration was 0.050 mg/ml, the LNP volume was 0.1 ml.
LNPs contained 0.1% Rhodamine-DOPE in addition to the other LNP components to facilitate detection. Thus, the ratios set forth in the tables below include 0.1 for the rhodamine label. For example, 50:10:10:27.9:2:0.1 AL:DSPC:chol:sterol:Cmp 428 indicates 50% amino lipid as the ionizable lipid, 10% DSPC as the phospholipid, 10% cholesterol, 27.9% phytosterol, 2% Compound 428 as the PEG lipid and 0.1% for the rhodamine-DOPE label. To prepare a non-labeled LNP, the same ratios are used except that the 0.1% rhodamine label is omitted and an additional 0.1% of structural lipid (cholesterol or cholesterol/phytosterol blend) is used (e.g., 27.9% becomes 28%).
Cells were sorted by flow cytometry into subsets based on expression of certain markers: CD3 (T cells), CD20 (B cells), and CD3-, CD20-, CD14+(Monocytes).
mRNA encoding GFP was used as a model agent to effect expression of an intracellular protein.
When conducting flow cytometry, the Y-axis was signal from the rhodamine tag on the LNP and the X-axis was the GFP signal showing expression of the protein.
The “associated” population is any rhodamine+ and/or GFP+ cell and the percent of these cells was calculated by dividing by the total number of cells. The “expression” population is any GFP+ cell and the percent of these cells was calculated by dividing by the total number of cells. The percent of associated cells expressing was obtained by dividing the % expressing cells by the % associated cells.

| Structure (SMILES) | immune cell delivery potentiating ability in T cells, sterol panel (T cells [1]) | immune cell delivery potentiating ability in T cells, amino lipid panel (T cells [1]) | other results |
| --- | --- | --- | --- |
| CCCCCCCCCCC(O)CN(CCCCC1NC(=O)C(CCCCN(CC(O)CCCCCCCCCC)CC(O)CCCCCCCCCC)NC1=O)CC(O)CCCCCCCCCC (stereo not drawn) [CKK-E12, reference compound] | – | – | immune cell delivery potentiating ability in T cells, other ionizable lipids (T cells [1]): exhibited immune cell delivery potentiating ability in T cells |
| CC(C)[C@H](C)CC[C@@H](C)[C@H]1CC[C@H]2[C@@H]3CC[C@H]4C[C@@H](O)CC[C@]4(C)[C@H]3CC[C@]12C [Compound 5-159] | exhibited immune cell delivery potentiating ability in T cells | – | – |
| CCC(/C=C/[C@@H](C)[C@H]1CC[C@H]2[C@@H]3CC=C4C[C@@H](O)CC[C@]4(C)[C@H]3CC[C@]12C)CC [Compound 5-160] | exhibited immune cell delivery potentiating ability in T cells | – | – |
| CCC(/C=C/[C@@H](C)[C@H]1CC[C@H]2[C@@H]3CC=C4C[C@@H](O)CC[C@]4(C)[C@H]3CC[C@]12C)(CC)CC [Compound 5-166] | exhibited immune cell delivery potentiating ability in T cells | – | – |
| CC(C)C(/C=C/[C@@H](C)[C@H]1CC[C@H]2[C@@H]3CC=C4C[C@@H](O)CC[C@]4(C)[C@H]3CC[C@]12C)C(C)C [Compound 5-167] | exhibited immune cell delivery potentiating ability in T cells | – | – |
| CC(C)C(CC[C@@H](C)[C@H]1CC[C@H]2[C@@H]3CC[C@H]4C[C@@H](O)CC[C@]4(C)[C@H]3CC[C@]12C)C(C)C [Compound 5-173] | exhibited immune cell delivery potentiating ability in T cells | – | – |
| CCCCCCCCC(C)OC(=O)CCCCCCCN(CCO)CCCCCCCC(=O)OC(CCCCCCCC)CCCCCCCC (stereo not drawn) [Compound I-48] | – | exhibited immune cell delivery potentiating ability in T cells | immune cell delivery potentiating ability in T cells, amino lipid panel (T cells [2]): exhibited immune cell delivery potentiating ability in T cells |
| CCCCCCCCC(CCC)OC(=O)CCCCCCCN(CCO)CCCCCCCC(=O)OC(CCCCCCCC)CCCCCCCC (stereo not drawn) [Compound I-50] | – | – | immune cell delivery potentiating ability in T cells, amino lipid panel (T cells [2]): exhibited immune cell delivery potentiating ability in T cells |
| CCCCCCCCCOC(=O)CCCCCCCN(CCCCCCCC(=O)OC(CCCCCCCC)CCCCCCCC)CCCNc1c(NCC)c(=O)c1=O [Compound I-292] | – | exhibited immune cell delivery potentiating ability in T cells | immune cell delivery potentiating ability in T cells, amino lipid panel (T cells [2]): exhibited immune cell delivery potentiating ability in T cells |
| CCCCCCCCCC(=O)OCCCCCCCN(CCCCCCCC(=O)OC(CCCCCCCC)CCCCCCCC)CCCNc1c(NC)c(=O)c1=O [Compound I-309] | – | exhibited immune cell delivery potentiating ability in T cells | – |
| CCCCCCCCCCCOC(=O)CCCCCN(CCCCCCCC(=O)OC(CCCCCCCC)CCCCCCCC)CCCNc1c(NC)c(=O)c1=O [Compound I-317] | – | exhibited immune cell delivery potentiating ability in T cells | – |
| CCCCCCCCC(CCC)OC(=O)CCCCCCCN(CCCO)CCCCCCCC(=O)OC(CCCCCCCC)CCCCCCCC (stereo not drawn) [Compound I-328] | – | – | immune cell delivery potentiating ability in T cells, amino lipid panel (T cells [2]): exhibited immune cell delivery potentiating ability in T cells |
| CCCCCCCCC(CCC)OC(=O)CCCCCCCN(CCCCCCCC(=O)OC(CCCCCCCC)CCCCCCCC)CCCNS(C)(=O)=O (stereo not drawn) [Compound I-330] | – | – | immune cell delivery potentiating ability in T cells, amino lipid panel (T cells [2]): exhibited immune cell delivery potentiating ability in T cells |
| CCCCCCCCC(C)OC(=O)CCCCCCCN(CCCCCCCC(=O)OC(CCCCCCCC)CCCCCCCC)CCCNc1c(NC)c(=O)c1=O (stereo not drawn) [Compound I-347] | – | exhibited immune cell delivery potentiating ability in T cells | – |
| CCCCCCCCC(CCC)OC(=O)CCCCCCCN(CCCCCCCC(=O)OC(CCCCCCCC)CCCCCCCC)CCCNc1c(NC)c(=O)c1=O (stereo not drawn) [Compound I-348] | – | exhibited immune cell delivery potentiating ability in T cells | – |
| CCCCCCCCC(C)OC(=O)CCCCCN(CCCCCCCC(=O)OC(CCCCCCCC)CCCCCCCC)CCCNc1c(NC)c(=O)c1=O (stereo not drawn) [Compound I-349] | – | exhibited immune cell delivery potentiating ability in T cells | – |
| CCCCCCCCC(CC)OC(=O)CCCCCN(CCCCCCCC(=O)OC(CCCCCCCC)CCCCCCCC)CCCNc1c(NC)c(=O)c1=O (stereo not drawn) [Compound I-350] | – | exhibited immune cell delivery potentiating ability in T cells | – |
| CCCCCCCCCOC(=O)CCCCCCCN(CCCCCCCC(=O)OC(CCCCCCCC)CCCCCCCC)CCCCNc1c(NC)c(=O)c1=O [Compound I-351] | – | exhibited immune cell delivery potentiating ability in T cells | – |
| CCCCCCCCC(CC)OC(=O)CCCCCCCN(CCCCCCCC(=O)OC(CCCCCCCC)CCCCCCCC)CCCCNc1c(NC)c(=O)c1=O (stereo not drawn) [Compound I-352] | – | exhibited immune cell delivery potentiating ability in T cells | – |
| CC[C@H](/C=C/[C@@H](C)[C@H]1CC[C@H]2[C@@H]3CC=C4C[C@@H](O)CC[C@]4(C)[C@H]3CC[C@]12C)C(C)C [Compound S-140] | exhibited immune cell delivery potentiating ability in T cells | – | – |
| CC(C)[C@H](C)CC[C@@H](C)[C@H]1CC[C@H]2[C@@H]3CC=C4C[C@@H](O)CC[C@]4(C)[C@H]3CC[C@]12C [Compound S-143, campesterol] | exhibited immune cell delivery potentiating ability in T cells | – | – |
| CC[C@H](CC[C@@H](C)[C@H]1CC[C@H]2[C@@H]3CC[C@H]4C[C@@H](O)CC[C@]4(C)[C@H]3CC[C@]12C)C(C)C [Compound S-144, β-sitostanol] | exhibited immune cell delivery potentiating ability in T cells | – | – |
| CC(C)[C@@H](C)/C=C/[C@@H](C)[C@H]1CC[C@H]2[C@@H]3CC=C4C[C@@H](O)CC[C@]4(C)[C@H]3CC[C@]12C [Compound S-148, brassicasterol] | exhibited immune cell delivery potentiating ability in T cells | – | – |
| CC(C)[C@@H](C)CC[C@@H](C)[C@H]1CC[C@H]2[C@@H]3CC[C@H]4C[C@@H](O)CC[C@]4(C)[C@H]3CC[C@]12C [Compound S-151] | exhibited immune cell delivery potentiating ability in T cells | – | – |
| CCCCCCCCCCCCCC(=O)OC[C@H](COP(=O)([O-])OCC[N+](C)(C)C)OC(=O)CCCCCCCCCCCCC [DMPC, 1,2-dimyristoyl-sn-glycero-phosphocholine, reference compound] | – | – | immune cell delivery potentiating ability in T cells, helper lipid panel (T cells [1]): exhibited immune cell delivery potentiating ability in T cells |
| CCCCCCCCCCCCCCCC(=O)OC[C@H](COP(=O)([O-])OCC[N+](C)(C)C)OC(=O)CCCCCCCCCCCCCCC [DPPC, 1,2-dipalmitoyl-sn-glycero-3-phosphocholine, reference compound] | – | – | immune cell delivery potentiating ability in T cells, helper lipid panel (T cells [1]): exhibited immune cell delivery potentiating ability in T cells |
| CCCCCCCCCCCCCCCCCC(=O)OC[C@H](COP(=O)([O-])OCC[N+](C)(C)C)OC(=O)CCCCCCCCCCCCCCCCC [DSPC, 1,2-distearoyl-sn-glycero-3-phosphocholine, reference compound] | – | – | immune cell delivery potentiating ability in T cells, helper lipid panel (T cells [2]; phospholipid component of the LNP, FIG. 32): exhibited immune cell delivery potentiating ability in T cells |
| CCCCCC=CCC=CCCCCCCCCC(CCCCCCCCC=CCC=CCCCCC)OC(=O)CCCN(C)C (stereo not drawn) [MC3, heptatriaconta-6,9,28,31-tetraen-19-yl 4-(dimethylamino)butanoate, reference compound] | – | – | immune cell delivery potentiating ability in T cells, other ionizable lipids (T cells [1]): exhibited immune cell delivery potentiating ability in T cells |
